Assay results reported in patent US20160282364A1, “ASSAY FOR INSULIN-DEGRADING ENZYME (IDE) INHIBITORS” (PRESIDENT AND FELLOWS OF HARVARD COLLEGE, priority 2013, published 2016).
Entries after “also recorded” stand apart in the source; their conditions may differ.

Experiments:
[1] = Tissue distribution by stable isotope dilution LC-MS; type: in vivo, mouse; conditions: mice, 80 mg/kg i.p.
Protocol: Stable isotope dilution LC-MS, pharmacokinetics, and tissue distribution measurements. […] Tissue samples ( 100 mg) fromb 6K-treated mice and vehicle controls were weighed and disrupted in Dounce homogenizers with PBS buffer (0.5 mL/100 mg sample), supplemented with 5 μM heavy-6bK and protease inhibitor cocktail (1 tablet/50 mL PBS, Roche diagnostics). The lysate was incubated on ice for 30 min, sonicated 5 min and centrifuged at 13,000 g for 5 min. The bulk of supernatant proteins were precipitated by denaturation at 95° C. for 5 min, removed by centrifugation.

[2] = test system: lean and DIO C57BL/6J mice; assay: i.p. injected glucose tolerance test (IPGTT); type: in vivo, mouse
Protocol: (§1) Wild-type lean C57BL/6J and diet-induced obese (DIO) C57BL/6J age-matched male mice were purchased from Jackson Laboratories, and used at ages 14-16, and 24-26 weeks respectively (>20 weeks of high-fat diet for the DIO mice). GCGR^/ mice were bred from heterozygous mice and used between 11 and 17 weeks. […] Blood glucose was measured from tail nicks using AccuCheck (Aviva) meters.
In vivo studies, general information. Wild-type C57BL/6J and diet-induced obese (DIO) C57BL/6J age-matched male adult mice were purchased from Jackson Laboratories. The age range was 13 to 15 weeks for lean mice, and 24 to 26 weeks for DIO mice. All animals were individually housed on a 14-h light, 10-h dark schedule at the Biology Research Infrastructure (BRI), Harvard University. Cage enrichment included cotton bedding and a red plastic hut. Water and food were available ad libitum, consisting respectively of normal chow (Prolab® RHM 3000) or high-fat diet (60 kcal % fat, D12492, Research Diets Inc.). All animal care and experimental procedures were in accordance with the standing committee on the Use of Animals in Research and Teaching at Harvard University, the guidelines and rules established by the Faculty of Arts and Sciences' Institutional Animal Care and Use Committee (IACUC), and the National Institutes of Health Guidelines for the Humane Treatment of Laboratory Animals. Glucagon-receptor knock-out (GCGR^−/−) mice were housed with a 14-h light and 10-h dark schedule and treated in accordance with the guidelines and rules approved by the IACUC at Albert Einstein College of Medicine, NY. Power analysis to determine animal cohort numbers was based on preliminary results and literature precedent, usually requiring between 5 and 8 animals per group. Animals were only excluded from the cohorts in cases of chronic weakness, which occurs among GCGR −/− mice, or when we identified occasional DIO mice with an outlier diabetic phenotype (>200 mg/dL fasting blood glucose). Age- and weight-matched mice were randomized to each treatment group. Double-blinding was not feasible.
Glucose tolerance tests GTT and blood glucose measurements. Prior to a glucose challenge, the animals were fasted for 14 h (8 pm to 10 am, during the dark cycle) while individually housed in a clean cage with inedible wood-chip as a floor substrate, cotton bedding and a red plastic hut. Inhibitor, vehicle or control compounds were administered by a single intraperitoneal (i.p.) injection 30 min prior to the glucose challenge. Dextrose was formulated in sterile saline (3 g in 10 mL total), and the dose was adjusted by fasted body weight. For oGTT, 3.0 g/kg dextrose was administered by gavage at a dose of 10 mL/kg, and for ipGTT, 1.5 g/kg dextrose injected at a dose of 5 mL/kg. Blood glucose was measured using AccuCheck® meters (Aviva) from blood droplets obtained from a small nick at the tip of the tail, at timepoints −45, 0, 15, 30, 45, 60, 90 and 120 min with reference to the time of glucose injection. The area of the blood glucose response profile curve corresponding to each animal was calculated by the trapezoid method^17, using as reference each individual baseline blood glucose measurement prior to glucose administration (t=0). […] Values are reported as mean±S.E.M. Statistics were performed using a two-tail Student's t-test, and significance levels shown in the figures are *p<0.05 versus vehicle control group or **p<0.01 versus vehicle control group.

[3] = Liver microsome stability (1 h incubation); type: in vitro ADME; conditions: after 1 h
[4] = test system: lean and DIO C57BL/6J mice; assay: Oral glucose tolerance test (OGTT); type: in vivo, mouse; conditions: lean (80 mg/kg) and DIO (60 mg/kg) mice, single i.p. dose 30 min before glucose gavage 3.0 g/kg, vs vehicle
Protocol: as §1
In vivo studies, general information. Wild-type C57BL/6J and diet-induced obese (DIO) C57BL/6J age-matched male adult mice were purchased from Jackson Laboratories. The age range was 13 to 15 weeks for lean mice, and 24 to 26 weeks for DIO mice. All animals were individually housed on a 14-h light, 10-h dark schedule at the Biology Research Infrastructure (BRI), Harvard University. Cage enrichment included cotton bedding and a red plastic hut. […]
Glucose tolerance tests GTT and blood glucose measurements. […] Blood glucose was measured using AccuCheck® meters (Aviva) from blood droplets obtained from a small nick at the tip of the tail, at timepoints −45, 0, 15, 30, 45, 60, 90 and 120 min with reference to the time of glucose injection. The area of the blood glucose response profile curve corresponding to each animal was calculated by the trapezoid method^17, using as reference each individual baseline blood glucose measurement prior to glucose administration (t=0). […]

[5] = test system: Wild-type mice; assay: Gastric emptying measurements; type: in vivo, mouse; conditions: 30 minutes post-gavage, vs vehicle and bisepi-6bK controls
Protocol: Trunk blood was obtained for plasma hormone measurements using the Multiplexed Mouse Metabolic Hormone panel (Milliplex, EMD Millipore) on a Luminex FlexMap 3D instrument. Gastric emptying was measured by dissection of stomachs 30 min after an oral glucose bolus (3.0 g/kg, 10 mL/kg) in sterile saline containing 0.1 mg/mL phenol red.
Gastric emptying measurements. Mice were fasted 14 h (8 pm to 10 am). Inhibitor or vehicle alone was injected i.p. as previously described, followed 30 min later by an oral glucose bolus (3.0 g/kg, 10 mL/kg) in sterile saline containing 0.1 mg/mL phenol red. At 30 min, the stomach was promptly dissected after CO2-euthanasia and stored on ice. The stomach contents were extracted into 2.5 mL EtOH (95%) by homogenization for 1 min using a probe sonicator. Tissue debris were decanted by centrifugation at 4000 g, followed by clearing at 15000 g for 15 min. The supernatant (1 mL) was mixed with 0.5 mL of aqueous NaOH (20 mM), and incubated at −20° C. for 1 h. The solution was centrifuged at 15,000 g for 15 min, and absorbance was determined at 565 nm. The spectrophotometer was blanked with the stomach contents of a mouse treated with colorless glucose solution. The absorbance was adjusted to the amount of glucose solution dosed to each mouse. Values are reported as mean±S.E.M relative to the original phenol red glucose solution. […]

NCCCC[C@@H]1NC(=O)/C=C/C(=O)N[C@H](C(N)=O)CCCCNC(=O)[C@@H](Cc2ccc(C(=O)c3ccccc3)cc2)NC(=O)[C@H](CC2CCCCC2)NC1=O [Compound 6bK]
biodistribution into plasma, liver, kidney, and pancreatic tissues [1]: prompt biodistribution
detection in the brain ([1]; 10-fold concentrated samples): did not detect
IPGTT response at low dose ([2]; DIO mice, 40 mg/kg): too low to achieve a consistent effect
glucose response profile in IPGTT ([2]; DIO mice, 60 mg/kg, lower over initial 30 min, hyperglycemic rebound from 1 h): biphasic response
IPGTT response at high dose ([2]; DIO mice, 90 mg/kg): respond similarly to 60 mg/kg
effective dose ([2]; i.p., 80 mg/kg lean (25 g), 60 mg/kg DIO (35-45 g)): ~2 mg/mouse
glucose tolerance after i.p. glucose injection ([2]; lean and DIO mice, glucose 1.5 g/kg i.p., vs vehicle): impaired glucose tolerance
remaining after incubation with liver microsome preparations [3]: 78%
oral glucose tolerance [4]: significantly improved; also recorded: improved glucose tolerance
slower gastric emptying of a labeled glucose solution [5]: 2 fold
